Test results published in BindingDB's records for doi:10.1128/AAC.01184-06 (University of California, 2007).

Test: Protection against Bacillus anthracis lethal toxin-mediated cytotoxicity in mouse RAW264.7 cells assessed as change in viability after 24 hrs by WST1 dye reduction assay

Row | SMILES | IC50
1 | CC(C)COC[C@H](CN(Cc1ccccc1)c1ccccc1)N1CCCC1 | 4.8 µM
2 | CN(C)CCCn1cc(C2=C(c3c[nH]c4ccccc34)C(=O)NC2=O)c2ccccc21 [2-[1-(3-dimethylaminopropyl)-indol-3-yl]-3-(indol-3-yl)maleimide] | 1.5 µM
3 | CCCCCCCCCCCCC/C=C/[C@@H](O)[C@H](CO)N(C)C [(E)-(2S,3R)-2-Dimethylamino-octadec-4-ene-1,3-diol] | 2.3 µM
